Source: US20250051338A1, “TYK2 DEGRADERS AND USES THEREOF” (Kymera Therapeutics, Inc., priority 2021, published 2025)

Legend:
Type in all cases: cell-based
[1] = molecular target: T1, TYK2 (Homo sapiens, UniProt P29597); test: TYK2 degradation MSD assay in human PBMC cells; set-up: endogenous in cells; host or cells: human PBMC; settings: 4 to 24 hours incubation, read-out: TYK2 MSD DC50 rating in human PBMC
In short: (§1)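 Compound-driven TYK2 loss is measured with a Meso Scale Discovery sandwich assay on whole-cell lysates. Cells are incubated 4 to 24 hours at 37° C with nine 1:3-diluted doses topping at 1 to 10 μM, and DC50 values derive from four-parameter curve fitting.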

[2] = molecular target: T1, TYK2; test: TYK2 degradation MSD assay in OCI-LY10 cells; set-up: endogenous in cells; host or cells: EBV-B cells; settings: 4 to 24 hours incubation, read-out: TYK2 MSD DC50 rating in OCI-LY10
In short: as §1

[3] = molecular target: T1, TYK2; test: TYK2 degradation MSD assay in EBV-B cells; set-up: endogenous in cells; host or cells: EBV-B cells
In short: as §1

[4] = 4 to 24 hours incubation, read-out: TYK2 MSD DC50 rating in EBV-B

T1 sequence (P29597 whole entry): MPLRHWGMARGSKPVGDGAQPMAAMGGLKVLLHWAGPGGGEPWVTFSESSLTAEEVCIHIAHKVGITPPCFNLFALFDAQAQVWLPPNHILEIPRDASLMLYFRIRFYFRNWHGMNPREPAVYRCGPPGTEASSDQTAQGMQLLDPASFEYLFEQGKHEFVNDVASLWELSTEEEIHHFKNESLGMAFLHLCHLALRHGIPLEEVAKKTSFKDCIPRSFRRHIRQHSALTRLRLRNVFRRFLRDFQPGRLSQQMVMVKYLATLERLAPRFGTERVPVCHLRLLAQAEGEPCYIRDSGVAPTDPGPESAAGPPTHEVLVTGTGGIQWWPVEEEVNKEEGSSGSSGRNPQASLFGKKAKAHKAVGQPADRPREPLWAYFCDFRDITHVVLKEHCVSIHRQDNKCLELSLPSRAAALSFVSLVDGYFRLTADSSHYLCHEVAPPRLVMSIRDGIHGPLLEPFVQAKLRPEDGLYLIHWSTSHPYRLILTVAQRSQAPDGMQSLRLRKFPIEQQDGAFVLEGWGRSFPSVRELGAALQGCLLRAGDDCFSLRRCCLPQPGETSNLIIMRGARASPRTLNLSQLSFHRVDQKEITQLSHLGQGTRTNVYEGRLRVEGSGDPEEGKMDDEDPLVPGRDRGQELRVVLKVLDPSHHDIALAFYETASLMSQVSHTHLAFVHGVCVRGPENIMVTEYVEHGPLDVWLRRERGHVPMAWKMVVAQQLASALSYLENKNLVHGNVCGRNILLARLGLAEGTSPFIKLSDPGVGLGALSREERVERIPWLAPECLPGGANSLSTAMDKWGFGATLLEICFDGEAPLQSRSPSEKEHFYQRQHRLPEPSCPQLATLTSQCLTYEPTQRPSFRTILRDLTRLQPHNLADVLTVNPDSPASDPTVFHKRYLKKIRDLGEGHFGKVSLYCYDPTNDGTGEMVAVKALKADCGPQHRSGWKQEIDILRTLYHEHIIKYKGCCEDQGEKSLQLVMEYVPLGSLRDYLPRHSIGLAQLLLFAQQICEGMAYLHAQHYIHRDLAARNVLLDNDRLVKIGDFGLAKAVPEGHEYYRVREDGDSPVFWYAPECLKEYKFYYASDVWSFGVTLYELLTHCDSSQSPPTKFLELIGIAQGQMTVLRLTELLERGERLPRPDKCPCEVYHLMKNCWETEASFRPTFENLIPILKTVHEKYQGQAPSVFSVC

Row | SMILES | DC50 [1] [nM] | DC50 [2] [nM] | DC50 [3, 4] [nM] | DC50 ([3]; read-out: TYK2 MSD DC50 rating in EBV-B, 4 to 24 hours incubation) [nM]
1 | CNc1cc(-c2cnn(C3CN(C(=O)NCCCCCCc4ccc5c(c4)n(C)c(=O)n5C4CCC(=O)NC4=O)C3)c2)nn2c(C(=O)N[C@@H]3C[C@@H]3F)cnc12 (stereo partly drawn) [Example K315] | > 100 | > 100 | > 100 | 
2 | CNc1cc(-c2cnn(C3CN(C(=O)NCCCCc4cccc5c4n(C)c(=O)n5C4CCC(=O)NC4=O)C3)c2)nn2c(C(=O)N[C@@H]3C[C@@H]3F)cnc12 (stereo partly drawn) [Example K316] | > 100 | > 100 | > 100 | 
3 | CNc1cc(-c2cnn(C3CN(C(=O)NCCCCCCc4cccc5c4n(C)c(=O)n5C4CCC(=O)NC4=O)C3)c2)nn2c(C(=O)N[C@@H]3C[C@@H]3F)cnc12 (stereo partly drawn) [Example K317] | > 100 | > 100 | > 100 | 
4 | CNc1cc(-c2cnn(C3CN(C(=O)NCCCCCCCCc4ccc5c(c4)n(C)c(=O)n5C4CCC(=O)NC4=O)C3)c2)nn2c(C(=O)NC3C[C@@H]3F)cnc12 (stereo partly drawn) [Example K318] | > 100 | > 100 | > 100 | 
5 | CNc1cc(-c2cnn(C3CN(C(=O)NCCCCCCCCc4cccc5c4n(C)c(=O)n5C4CCC(=O)NC4=O)C3)c2)nn2c(C(=O)N[C@@H]3C[C@@H]3F)cnc12 (stereo partly drawn) [Example K319] | > 100 | > 100 | > 100 | 
6 | CNc1cc(Nc2cccn(-c3ccc(C(=O)NCCCCc4ccc5c(c4)n(C)c(=O)n5C4CCC(=O)NC4=O)cn3)c2=O)nn2c(C(N)=O)cnc12 (stereo not drawn) [Example K320] | > 100 | > 100 | > 100 | 
7 | CNc1cc(Nc2cccn(-c3ccc(C(=O)NCCCCc4ccc5c(c4)n(C)c(=O)n5C4CCC(=O)NC4=O)cn3)c2=O)nn2c(C(=O)NC3CCC3)cnc12 (stereo not drawn) [Example K321] | > 100 | > 100 | > 100 | 
8 | CNc1cc(Nc2cccn(-c3ccc(C(=O)NCCCCc4ccc5c(c4)n(C)c(=O)n5C4CCC(=O)NC4=O)cn3)c2=O)nn2c(C(=O)NC3CC3)cnc12 (stereo not drawn) [Example K322] | > 100 | > 100 | > 100 | 
9 | Cn1c(=O)n(C2CCC(=O)NC2=O)c2ccc(CCCCNC(=O)c3ccc(-c4ccc5ncc(C(=O)N[C@@H]6C[C@@H]6F)n5n4)cc3)cc21 (stereo partly drawn) [Example K324] | > 100 | > 100 | > 100 | 
10 | Cn1c(=O)n(C2CCC(=O)NC2=O)c2ccc(CCCCNC(=O)c3ccc(-n4cccc(Nc5ccc6ncc(C(=O)N[C@@H]7C[C@@H]7F)n6n5)c4=O)nc3)cc21 (stereo partly drawn) [Example K325] | > 100 | > 100 | > 100 | 
11 | Cn1c(=O)n(C2CCC(=O)NC2=O)c2ccc(CCCCNC(=O)c3ccccc3Nc3ccc4ncc(C(=O)N[C@@H]5C[C@@H]5F)n4n3)cc21 (stereo partly drawn) [Example K326] | > 100 | > 100 | > 100 | 
12 | Cn1c(=O)n(C2CCC(=O)NC2=O)c2ccc(CCCCC(=O)N3CCC(n4cc(-c5ccc6ncc(C(=O)N[C@@H]7C[C@@H]7F)n6n5)cn4)CC3)cc21 (stereo partly drawn) [Example K327] | > 100 | > 100 | > 100 | 
13 | Cn1c(=O)n(C2CCC(=O)NC2=O)c2ccc(CCCCNC(=O)c3cccc(Nc4ccc5ncc(C(=O)N[C@@H]6C[C@@H]6F)n5n4)c3)cc21 (stereo partly drawn) [Example K328] | > 100 | > 100 |  | > 100
14 | CNc1cc(Nc2cccn(C3CCN(C(=O)NCCCCc4ccc5c(c4)n(C)c(=O)n5C4CCC(=O)NC4=O)CC3)c2=O)nc2c(C(=O)N[C@@H]3C[C@@H]3F)cnn12 (stereo partly drawn) [Example K330] | > 100 | > 100 | > 100 | 
15 | Cn1c(=O)n(C2CCC(=O)NC2=O)c2ccc(CN3CCC(CNc4cc(Nc5cccn(-c6ccccn6)c5=O)nn5c(C(=O)N[C@@H]6C[C@@H]6F)cnc45)CC3)cc21 (stereo partly drawn) [Example K360] | > 100 | > 100 | > 100 | 
16 | CNc1cc(-c2cnn(C3CCC(CN(C)C4CCN(c5ccc6c(c5)n(C)c(=O)n6C5CCC(=O)NC5=O)CC4)CC3)c2)nn2c(C(=O)N[C@@H]3C[C@@H]3F)cnc12 (stereo partly drawn) [Example K361] | > 100 | > 100 | > 100 | 

The next lines start with results.

Row | DC50 [1] [nM] | DC50 [2] [nM] | DC50 [3, 4] [nM] | SMILES | DC50 ([3]; read-out: TYK2 MSD DC50 rating in EBV-B, 4 to 24 hours incubation) [nM]
17 | > 100 | > 100 | > 100 | CNc1cc(-c2cccc(C(=O)NCCCCc3cccc4c3n(C)c(=O)n4C3CCC(=O)NC3=O)c2)nn2c(C(=O)N[C@@H]3C[C@@H]3F)cnc12 (stereo partly drawn) [Example K305] | 
18 | > 100 | > 100 | > 100 | CNc1cc(-c2cccc(C(=O)NCCCCCCc3ccc4c(c3)n(C)c(=O)n4C3CCC(=O)NC3=O)c2)nn2c(C(=O)N[C@@H]3C[C@@H]3F)cnc12 (stereo partly drawn) [Example K306] | 
19 | > 100 | > 100 | > 100 | CNc1cc(-c2cccc(C(=O)NCCCCc3ccc4c(c3)n(C)c(=O)n4C3CCC(=O)NC3=O)c2)nn2c(C(=O)N[C@@H]3C[C@@H]3F)cnc12 (stereo partly drawn) [Example K307] | 
20 | > 100 | > 100 | > 100 | CNc1cc(-c2cccc(C(=O)NCCCCCCc3cccc4c3n(C)c(=O)n4C3CCC(=O)NC3=O)c2)nn2c(C(=O)N[C@@H]3C[C@@H]3F)cnc12 (stereo partly drawn) [Example K308] | 
21 | > 100 | > 100 | > 100 | CNc1cc(-c2cccc(C(=O)NCCCCCCCCc3ccc4c(c3)n(C)c(=O)n4C3CCC(=O)NC3=O)c2)nn2c(C(=O)NC3C[C@@H]3F)cnc12 (stereo partly drawn) [Example K309] | 
22 | > 100 | > 100 | > 100 | CNc1cc(-c2cccc(C(=O)NCCCCCCCCc3cccc4c3n(C)c(=O)n4C3CCC(=O)NC3=O)c2)nn2c(C(=O)N[C@@H]3C[C@@H]3F)cnc12 (stereo partly drawn) [Example K310] | 
23 | > 100 | > 100 | > 100 | CNc1cc(-c2cnn(C3CCN(C(=O)NCCCCCCc4ccc5c(c4)n(C)c(=O)n5C4CCC(=O)NC4=O)CC3)c2)nn2c(C(=O)N[C@@H]3C[C@@H]3F)cnc12 (stereo partly drawn) [Example K311] | 
24 | > 100 | > 100 | > 100 | CNc1cc(-c2cnn(C3CCN(C(=O)NCCCCCCc4cccc5c4n(C)c(=O)n5C4CCC(=O)NC4=O)CC3)c2)nn2c(C(=O)N[C@@H]3C[C@@H]3F)cnc12 (stereo partly drawn) [Example K312] | 
25 | 1 to 10 | > 100 | > 100 | CNc1cc(-c2cnn(C3CCN(C(=O)NCCCCCCCCc4cccc5c4n(C)c(=O)n5C4CCC(=O)NC4=O)CC3)c2)nn2c(C(=O)N[C@@H]3C[C@@H]3F)cnc12 (stereo partly drawn) [Example K313] | 
26 | > 100 | > 100 | > 100 | CNc1cc(-c2cnn(C3CN(C(=O)NCCCCc4ccc5c(c4)n(C)c(=O)n5C4CCC(=O)NC4=O)C3)c2)nn2c(C(=O)N[C@@H]3C[C@@H]3F)cnc12 (stereo partly drawn) [Example K314] | 
27 | < 1 | > 100 | > 100 | CNc1cc(Nc2cccn(-c3ccc(C(=O)N4CCC(CC#Cc5cccc6c5n(C)c(=O)n6C5CCC(=O)NC5=O)CC4)cn3)c2=O)nn2c(C(=O)N[C@@H]3C[C@@H]3F)cnc12 (stereo partly drawn) [Example K331] | 
28 | < 1 | > 100 | > 100 | CNc1cc(-c2cnn(C3CCC(CN4CC5(CCN(c6cccc7c6n(C)c(=O)n7C6CCC(=O)NC6=O)CC5)C4)CC3)c2)nn2c(C(=O)NC3C[C@@H]3F)cnc12 (stereo partly drawn) [Example K362] | 
29 | < 1 | > 100 | > 100 | CNc1cc(-c2cnn(C3CCC(CN4CC5(CCN(c6ccc7c(c6)n(C)c(=O)n7C6CCC(=O)NC6=O)CC5)C4)CC3)c2)nn2c(C(=O)N[C@@H]3C[C@@H]3F)cnc12 (stereo partly drawn) [Example K363] | 
